Where two headings read alike, the source gives them in different places. No end group written: not given here.

The record followed here is patent US7410767B1, “HLA-E binding” (Isis Innovation Limited, priority 1997, dated 2008).

The experiment deals with HLA-E (Homo sapiens, UniProt P13747, G128R). Put plainly: in vitro peptide binding assay to HLA-E. The text has this: Whatever form of HLA-E is used, a suitable peptide for binding in the HLA-E peptide groove will be required. […] Other peptides which bind to HLA-E may be used, for example peptides from viral proteins which may be the same as or different to MHC class I leader sequence peptides. […] A suitable assay for identifying synthetic peptides which bind to HLA-E is described in Braud et al 1997 Eur. J. Immunol. 27:1164-1169.

Where [1] appears, read: in vitro peptide binding assay, ratio of optical densities, read-out: Concentration of peptide required to obtain 50% of binding to HLA-E.

As for `CSCC[C@H](NC(=O)[C@@H](N)C(C)C)C(=O)N[C@@H](C)C(=O)N1CCC[C@H]1C(=O)N[C@@H](CCCNC(=N)N)C(=O)N[C@H](C(=O)N[C@H](C(=O)N[C@@H](CC(C)C)C(=O)N[C@@H](CC(C)C)C(=O)O)C(C)C)[C@@H](C)O`, the EC50 under setting [1] was found to be 60 nM. In turn, `CSCC[C@H](NC(=O)[C@@H](N)C(C)C)C(=O)N[C@@H](C)C(=O)N1CCC[C@H]1C(=O)N[C@@H](CCCNC(=N)N)C(=O)N[C@H](C(=O)N[C@@H](CC(C)C)C(=O)N[C@@H](CC(C)C)C(=O)N[C@@H](CC(C)C)C(=O)O)[C@@H](C)O` returned an EC50 of 300 nM. Turning to `CSCC[C@H](NC(=O)[C@@H](N)C(C)C)C(=O)N[C@@H](C)C(=O)N1CCC[C@H]1C(=O)N[C@@H](CCCNC(=N)N)C(=O)N[C@H](C(=O)N[C@@H](CC(C)C)C(=O)N[C@H](C(=O)N[C@@H](CC(C)C)C(=O)O)C(C)C)[C@@H](C)O`, under setting [1], the EC50 was 60 nM. The same measure, in the same setting: for `CC(C)C[C@H](NC(=O)[C@H](CC(C)C)NC(=O)[C@@H](NC(=O)[C@@H](NC(=O)[C@H](CCCNC(=N)N)NC(=O)[C@@H]1CCCN1C(=O)[C@H](C)NC(=O)[C@@H](NC(=O)[C@@H](N)C(C)C)[C@@H](C)O)[C@@H](C)O)C(C)C)C(=O)O` the value was above 100000 nM. Same read-out and setting: then VTAPRTLLL, with above 100000 nM.
